Results from patent US20200009085A1, “Methods For Treating Ovarian Cancer” (RADIUS HEALTH, INC., priority 2016, published 2020).
Entries after “also recorded” stand apart in the source; their conditions may differ. Counter-ions that a name gives are not always drawn.

Columns and labels:
[1] = tested on: breast cancer xenograft models; details: regardless of ESR1 mutation status and prior endocrine therapy; cited from earlier work
ERα = biological target: T1, ERα (Homo sapiens, UniProt P03372); details: ERα versus estrogen receptor beta (ERβ); cited from earlier work
T1 sequence (P03372 1-595): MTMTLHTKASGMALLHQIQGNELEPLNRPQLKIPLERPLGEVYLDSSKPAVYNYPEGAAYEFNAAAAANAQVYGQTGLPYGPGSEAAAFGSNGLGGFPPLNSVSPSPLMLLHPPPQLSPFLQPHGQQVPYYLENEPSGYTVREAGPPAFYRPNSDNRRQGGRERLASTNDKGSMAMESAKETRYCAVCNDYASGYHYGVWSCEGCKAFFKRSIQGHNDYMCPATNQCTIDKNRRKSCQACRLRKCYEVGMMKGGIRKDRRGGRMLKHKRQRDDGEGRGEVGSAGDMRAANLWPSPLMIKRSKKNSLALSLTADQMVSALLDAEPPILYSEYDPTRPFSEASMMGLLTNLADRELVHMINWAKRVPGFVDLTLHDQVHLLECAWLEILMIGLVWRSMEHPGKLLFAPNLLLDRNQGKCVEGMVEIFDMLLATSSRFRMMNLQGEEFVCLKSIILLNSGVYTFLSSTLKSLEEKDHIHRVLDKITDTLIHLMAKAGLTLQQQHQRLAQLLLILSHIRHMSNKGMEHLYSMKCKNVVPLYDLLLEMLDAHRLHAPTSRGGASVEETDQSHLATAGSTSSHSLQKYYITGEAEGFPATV

[2] = tested on: OV-10-0050 ovarian cancer tumor; test: In vivo xenograft PDX model (OV-10-0050 ovarian patient derived xenograft)
Experimental: RAD1901 used in the examples below was (6R)-6-(2-(N-(4-(2-(ethylamino)ethyl)benzyl)-N-ethylamino)-4-methoxyphenyl)-5,6,7,8-tetrahydronaphthalen-2-ol dihydrochloride, manufactured by IRIX Pharmaceuticals, Inc. (Florence, S.C.). RAD1901 was stored as a dry powder, formulated for use as a homogenous suspension in 0.5% (w/v) methylcellulose in deionized water, and for animal models was administered p.o.
All mice were housed in pathogen-free housing in individually ventilated cages with sterilized and dust-free bedding cobs, access to sterilized food and water ad libitum, under a light dark cycle (12-14 hour circadian cycle of artificial light) and controlled room temperature and humidity.
The PDX shown in FIG. 1 was the OV-10-0050 ovarian cancer tumor, derived from an ovarian adenocarcinoma from a person. The tumor was grade 3 and positive for cytokeratin indicating an ovarian epithelial type. The tumor also stained positive for ER and an ER target gene (progesterone receptor). The OV-10-0050 PDX model was established from viable human tumor tissue that had been serially passaged in animals (female Balb/c nude mice) a limited number of times to maintain tumor heterogeneity. […]
Tumor sizes were measured twice per week in two dimensions using a caliper, and the volume was expressed in mm^3 using the formula: V=0.5 a×b^2 where a and b were the long and short diameters of the tumor, respectively. […]
TGI was calculated for each group using the formula: TGI (%)=[1−(Ti−T0)/(Vi−V0)]×100; Ti is the average tumor volume of a treatment group on a given day, T0 is the average tumor volume of the treatment group on the day of grouping, Vi is the average tumor volume of the vehicle control group on a given day with Ti, and V0 is the average tumor volume of the vehicle group on the day of grouping. […]
A one-way ANOVA was performed to compare tumor volume among RAD1901-treted groups compared to the vehicle-treated group on day 32 of treatment. All data were analyzed using Graphpad Prism. p<0.05 was considered to be statistically significant.

Structure (SMILES): CCNCCc1ccc(CN(CC)c2cc(OC)ccc2[C@@H]2CCc3cc(O)ccc3C2)cc1 [RAD1901, (6R)-6-(2-(N-(4-(2-(ethylamino)ethyl)benzyl)-N-ethylamino)-4-methoxyphenyl)-5,6,7,8-tetrahydronaphthalen-2-ol dihydrochloride]
- tumor growth inhibition and/or regression [1]: inhibit tumor growth and/or drive tumor regression
- binding preference ERα versus ERβ (ERα): preferentially bind ERα
- tolerability (reason the group was taken down) ([2]; 60 mg/kg p.o. q.d., Day 32, tumor-bearing Balb/c nude mice): weakness and heavy body weight loss
- tumor regression ([2]; OV-10-0050 PDX, 30 mg/kg and 60 mg/kg p.o. daily, individual tumor sizes on Day 32, FIG. 2, dihydrochloride): drive tumor regression; also recorded: tumor regressions in some animals
- tumor growth inhibition (TGI) ([2]; OV-10-0050 PDX, RAD1901 30 or 60 mg/kg p.o. q.d., day 32, approximately equal activity at both dose groups, FIG. 1): about 80%
